Data: patent US7642354B2, “Polycyclic pyrazines as potassium ion channel modulators” (Icagen, Inc., priority 2004, dated 2010)

Legend:
[1] = biological target: hSK2 (Homo sapiens, UniProt Q9H2S1); assay: Assay for compound activity towards hSK channels (86Rb+ efflux); type: cell-based; conditions: 86Rb+ efflux stimulated with calcium ionophore; drug 0.01 to 30 μM in EBSS; read-out: hSK2 Inhibitory Activity
Procedure: 18.1 Assay for Compound Activity Towards hSK Channels Cells expressing small conductance, calcium activated potassium channels, such as SK-like channels were loaded with ^86Rb^+ by culture in media containing ^86RbCl. Following loading, the culture media was removed and the cells were washed in EBSS to remove residual traces of ^86Rb^+. Cells were preincubated with the drug (0.01 to 30 μM in EBSS) and then ^86Rb^+ efflux was stimulated by exposing cells to EBSS solution supplemented with a calcium ionophore, such as ionomycin, in the continued presence of the drug. After a suitable efflux period, the EBSS/ionophore solution was removed from the cells and the ^86Rb^+ content was determined by Cherenkov counting (Wallac Trilux). Cells were then lysed with a SDS solution and the ^86Rb^+ content of the lysate was determined. Percent ^86Rb^+ efflux was calculated according to the following equation: (^86Rb^+ content in EBSS/(^86Rb^+ content in EBSS+^86Rb^+ content of the lysate))×100

[2] = biological target: T1, recombinant human SK4 (hIK1 or hKCa4) channels (Homo sapiens, UniProt O15554+P0DP23); conditions: cited from earlier work; for activation of SK4 channels: applied to the inside of SK4 channel-expressing membrane patches
T1 construct: host or cells: HEK 293

| SMILES | IC50 [1] [µM] | other results |
| --- | --- | --- |
| Cc1cnn(-c2cncc(Nc3ccc(I)cn3)n2)c1 [(5-Iodo-pyridin-2-yl)-[6-(4-methyl-pyrazol-1-yl)-pyrazin-2-yl]-amine] | 3 to 30 |  |
| Cc1cc(Nc2cncc(-c3ccccn3)n2)[nH]n1 [(5-Methyl-2H-pyrazol-3-yl)-(6-pyridin-2-yl-pyrazin-2-yl)-amine] | 0.05 to 1 |  |
| Cc1nnc(Nc2cncc(-c3ccccn3)n2)s1 [(5-Methyl-[1,3,4]thiadiazol-2-yl)-(6-pyridin-2-yl-pyrazin-2-yl)-amine] | 3 to 30 |  |
| c1ccc(-c2cncc(Nc3ccc(N4CCOCC4)cn3)n2)nc1 [(5-Morpholin-4-yl-pyridin-2-yl)-(6-pyridin-2-yl-pyrazin-2-yl)-amine] | < 0.05 |  |
| O=[N+]([O-])c1ccc(Nc2cncc(-c3ccccn3)n2)nc1 [(5-Nitro-pyridin-2-yl)-(6-pyridin-2-yl-pyrazin-2-yl)-amine] | 3 to 30 |  |
| c1ccc(-c2ccc(Nc3cncc(-c4ccccn4)n3)nc2)cc1 [(5-Phenyl-pyridin-2-yl)-(6-pyridin-2-yl-pyrazin-2-yl)-amine] | 0.05 to 1 |  |
| c1ccc(-c2ccc(Nc3cncc(-c4nccs4)n3)nc2)cc1 [(5-Phenyl-pyridin-2-yl)-(6-thiazol-2-yl-pyrazin-2-yl)-amine] | 3 to 30 |  |
| c1ccc(-c2ccc(Nc3cncc(-c4cc(N5CCCC5)ccn4)n3)nc2)cc1 [(5-Phenyl-pyridin-2-yl)-[6-(4-pyrrolidin-1-yl-pyridin-2-yl)-pyrazin-2-yl]-amine] | 3 to 30 |  |
| CC(C)(C)c1nnc(Nc2cncc(-c3ccccn3)n2)s1 [(5-tert-Butyl-[1,3,4]thiadiazol-2-yl)-(6-pyridin-2-yl-pyrazin-2-yl)-amine] | 3 to 30 |  |
| c1ccc(Nc2cncc(-c3cc4ccccc4s3)n2)nc1 [(6-Benzo[b]thiophen-2-yl-pyrazin-2-yl)-pyridin-2-yl-amine] | 3 to 30 |  |
| c1ccc(Nc2cncc(-c3cc4ccccc4o3)n2)nc1 [(6-Benzofuran-2-yl-pyrazin-2-yl)-pyridin-2-yl-amine] | 3 to 30 |  |
| Fc1cccc(Nc2cncc(-c3ccccn3)n2)n1 [(6-Fluoro-pyridin-2-yl)-(6-pyridin-2-yl-pyrazin-2-yl)-amine] | 1 to 3 |  |
| c1ccc(-c2cncc(Nc3nc[nH]n3)n2)nc1 [(6-Pyridin-2-yl-pyrazin-2-yl)-(1H-[1,2,4]triazol-3-yl)-amine] | 3 to 30 |  |
| c1ccc(-c2cncc(Nc3nnn[nH]3)n2)nc1 [(6-Pyridin-2-yl-pyrazin-2-yl)-(1H-tetrazol-5-yl)-amine] | 3 to 30 |  |
| c1ccc(-c2cncc(Nc3ccc(N4CCCCC4)cn3)n2)nc1 [(6-Pyridin-2-yl-pyrazin-2-yl)-(3,4,5,6-tetrahydro-2H-[1,3′]bipyridinyl-6′-yl)-amine] | < 0.05 |  |
| c1ccc(-c2cncc(Nc3ccc(N4CCCC4)cn3)n2)nc1 [(6-Pyridin-2-yl-pyrazin-2-yl)-(5-pyrrolidin-1-yl-pyridin-2-yl)-amine] | < 0.05 |  |
| c1ccc(-c2cncc(Nc3cc(-c4cccs4)n[nH]3)n2)nc1 [(6-Pyridin-2-yl-pyrazin-2-yl)-(5-thiophen-2-yl-2H-pyrazol-3-yl)-amine] | 3 to 30 |  |
| c1ccc(-c2cncc(Nc3ccc(-c4cccs4)cn3)n2)nc1 [(6-Pyridin-2-yl-pyrazin-2-yl)-(5-thiophen-2-yl-pyridin-2-yl)-amine] | 0.05 to 1 |  |
| c1ccc(-c2cncc(Nc3ccc(-c4ccsc4)cn3)n2)nc1 [(6-Pyridin-2-yl-pyrazin-2-yl)-(5-thiophen-3-yl-pyridin-2-yl)-amine] | 0.05 to 1 |  |
| c1ccc(-c2cncc(Nc3nccnn3)n2)nc1 [(6-Pyridin-2-yl-pyrazin-2-yl)-[1,2,4]triazin-3-yl-amine] | 3 to 30 |  |
| c1ccc(-c2cncc(Nc3nncs3)n2)nc1 [(6-Pyridin-2-yl-pyrazin-2-yl)-[1,3,4]thiadiazol-2-yl-amine] | 3 to 30 |  |
| c1ccc(-c2cncc(Nc3ncncn3)n2)nc1 [(6-Pyridin-2-yl-pyrazin-2-yl)-[1,3,5]triazin-2-yl-amine] | 3 to 30 |  |
| c1ccc(-c2cncc(Nc3ncccn3)n2)nc1 [(6-Pyridin-2-yl-pyrazin-2-yl)-pyrimidin-2-yl-amine] | 3 to 30 |  |
| c1ccc(-c2cncc(Nc3ccncn3)n2)nc1 [(6-Pyridin-2-yl-pyrazin-2-yl)-pyrimidin-4-yl-amine] | 3 to 30 |  |
| c1ccc(-c2cncc(Nc3ccc4ccccc4n3)n2)nc1 [(6-Pyridin-2-yl-pyrazin-2-yl)-quinolin-2-yl-amine] | 3 to 30 |  |
| c1ccc(-c2cncc(Nc3nccs3)n2)nc1 [(6-Pyridin-2-yl-pyrazin-2-yl)-thiazol-2-yl-amine] | 3 to 30 |  |
| [Ba+2] [Barium] |  | activation of SK4 channels [2]: activated SK4 channels in a concentration-dependent manner |
| CCN(CC)C(=O)c1ccc(Nc2cncc(-c3ccccn3)n2)nc1 [N,N-Diethyl-6-(6-pyridin-2-yl-pyrazin-2-ylamino)-nicotinamide] | 3 to 30 |  |

| SMILES | IC50 [1] [µM] | other results |
| --- | --- | --- |
| Nc1ccc(Nc2cncc(-c3ccccn3)n2)nc1 [N^2-(6-Pyridin-2-yl-pyrazin-2-yl)-pyridine-2,5-diamine] | 0.05 to 1 |  |
| COCCN(C)c1ccc(Nc2cncc(-c3ccccn3)n2)nc1 [N^5-(2-Methoxy-ethyl)-N^5-methyl-N^2-(6-pyridin-2-yl-pyrazin-2-yl)-pyridine-2,5-diamine] | < 0.05 |  |
| O=C(c1ccccc1)c1nccnc1Nc1cncc(-c2ccccn2)n1 [Phenyl-[3-(6-pyridin-2-yl-pyrazin-2-ylamino)-pyrazin-2-yl]-methanone] | 3 to 30 |  |
| c1ccc(-c2cncc(Nc3cnccn3)n2)nc1 [Pyrazin-2-yl-(6-pyridin-2-yl-pyrazin-2-yl)-amine] | 0.05 to 1 |  |
| c1ccc(Nc2cncc(-c3ccccn3)n2)nc1 [Pyridin-2-yl-(6-pyridin-2-yl-pyrazin-2-yl)-amine] | < 0.05 |  |
| c1ccc(Nc2cncc(-c3cc(N4CCCC4)ccn3)n2)nc1 [Pyridin-2-yl-[6-(4-pyrrolidin-1-yl-pyridin-2-yl)-pyrazin-2-yl]-amine] | 0.05 to 1 |  |
| c1ccc(-c2cncc(Nc3ccc(-c4cccnc4)cn3)n2)nc1 [[3,3′]Bipyridinyl-6-yl-(6-pyridin-2-yl-pyrazin-2-yl)-amine] | 0.05 to 1 |  |
| O=C(c1nccnc1Nc1cncc(-c2ccccn2)n1)N1CCCC1 [[3-(6-Pyridin-2-yl-pyrazin-2-ylamino)-pyrazin-2-yl]-pyrrolidin-1-yl-methanone] | 3 to 30 |  |
| COc1ccccc1-c1ccc(Nc2cncc(-c3ccccn3)n2)nc1 [[5-(2-Methoxy-phenyl)-pyridin-2-yl]-(6-pyridin-2-yl-pyrazin-2-yl)-amine] | 0.05 to 1 |  |
| Fc1cccc(-c2ccc(Nc3cncc(-c4ccccn4)n3)nc2)c1 [[5-(3-Fluoro-phenyl)-pyridin-2-yl]-(6-pyridin-2-yl-pyrazin-2-yl)-amine] | 0.05 to 1 |  |
| CN(C)c1ccc(-c2ccc(Nc3cncc(-c4ccccn4)n3)nc2)cc1 [[5-(4-Dimethylamino-phenyl)-pyridin-2-yl]-(6-pyridin-2-yl-pyrazin-2-yl)-amine] | 0.05 to 1 |  |
| CN1CCN(c2ccc(Nc3cncc(-c4ccccn4)n3)nc2)CC1 [[5-(4-Methyl-piperazin-1-yl)-pyridin-2-yl]-(6-pyridin-2-yl-pyrazin-2-yl)-amine] | 1 to 3 |  |
| Clc1ccc(-c2ccc(Nc3cncc(-c4ccccn4)n3)nc2)s1 [[5-(5-Chloro-thiophen-2-yl)-pyridin-2-yl]-(6-pyridin-2-yl-pyrazin-2-yl)-amine] | 0.05 to 1 |  |
| Cc1ccc(-c2ccc(Nc3cncc(-c4ccccn4)n3)nc2)o1 [[5-(5-Methyl-furan-2-yl)-pyridin-2-yl]-(6-pyridin-2-yl-pyrazin-2-yl)-amine] | 0.05 to 1 |  |
| Cc1cnn(-c2cncc(Nc3ccc(-c4ccccc4)cn3)n2)c1 [[6-(4-Methyl-pyrazol-1-yl)-pyrazin-2-yl]-(5-phenyl-pyridin-2-yl)-amine] | 3 to 30 |  |
| Cc1cnn(-c2cncc(Nc3ccc(N4CCCC4)cn3)n2)c1 [[6-(4-Methyl-pyrazol-1-yl)-pyrazin-2-yl]-(5-pyrrolidin-1-yl-pyridin-2-yl)-amine] | 0.05 to 1 |  |
| Cc1ccnc(-c2cncc(Nc3ccccn3)n2)c1 [[6-(4-Methyl-pyridin-2-yl)-pyrazin-2-yl]-pyridin-2-yl-amine] | 0.05 to 1 |  |
| Cc1ccc(-c2cncc(Nc3ccccn3)n2)nc1 [[6-(5-Methyl-pyridin-2-yl)-pyrazin-2-yl]-pyridin-2-yl-amine] | 0.05 to 1 |  |
| COc1cccc(-c2cncc(Nc3ccccn3)n2)n1 [[6-(6-Methoxy-pyridin-2-yl)-pyrazin-2-yl]-pyradin-2-yl-amine] | 0.05 to 1 |  |
| [Cd] [cadmium] |  | activation of SK4 channels [2]: activated SK4 channels in a concentration-dependent manner |
| [Ca+2] [calcium] |  | rank of potency in activating SK4 channels ([2]; among the nine metals tested): most potent metal; activation of SK4 channels [2]: activated SK4 channels in a concentration-dependent manner |
| [Co+2] [cobalt] |  | activation of SK4 channels [2]: did not activate the SK4 channels |
| [Fe] [iron] |  | activation of SK4 channels [2]: did not activate the SK4 channels |
| [Pb+2] [lead] |  | activation of SK4 channels [2]: activated SK4 channels in a concentration-dependent manner |
| [Mg+2] [magnesium] |  | activation of SK4 channels [2]: did not activate the SK4 channels |
| [Sr+2] [strontium] |  | activation of SK4 channels [2]: activated SK4 channels in a concentration-dependent manner |
| [Zn+2] [zinc] |  | activation of SK4 channels [2]: did not activate the SK4 channels |
